From PubChem BioAssay AID2305 (GlaxoSmithKline (GSK), 2010) come the findings set out here.

Where a SMILES comes first, the peptide text is derived from it. The star is where a group is joined. Boc = CC(C)(C)OC(=O)*

In this assay the test system is P. falciparum 3D7 growth, pLDH absorbance. Put plainly: blood-stage malaria parasite growth potency – strain 3D7, dose response (AID 2305).
What is called IC50 is the concentration needed to halve the response being measured. With `Cc1cc2c(cc1C(F)(F)F)N(C(=O)Nc1cc(OCCN(C(C)C)C(C)C)cc(C(F)(F)F)c1)CC2`, the IC50 amounted to 260 nM.
Then `Cn1nc(-c2cccc(CNC3CCc4ccccc43)c2)c2cnc(NC3CCCC3)nc21` (stereo not drawn), with 860 nM.
`Cc1cc(Nc2ccccc2)nc(Nc2ccccc2)n1` came in with a 50% inhibitory concentration (IC50) of 800 nM.
Then `CC(C)c1cc(N)c2cc(NC(=O)COCC(=O)Nc3ccc4nc(C(C)C)cc(N)c4c3)ccc2n1`, with 220 nM; and `CCC(CC)NCc1c(O)ccc2c(CNC(CC)CC)c(O)ccc12`, with 390 nM; and `Oc1ccc(CCNCCCCCCNCCc2ccc(Br)cc2)cc1O`, with 1020 nM.
Then `COC(=O)CC[C@H](NC(=O)[C@H](C)NC(=O)OC(C)(C)C)C(=O)OC` (Boc-Ala-Glu(OMe)-OMe), with 820 nM.
`Cc1cccc2[nH]c(-c3cccc(-c4cccc(CN5CCC(CO)CC5)c4)c3)nc12` gave an IC50 of 720 nM.
Then `Cc1ccc(NC(=O)NC2CCN(CCCCCNC(=O)/C=C/c3ccc(Cl)c(Cl)c3)CC2)cc1`, with 690 nM; and `CN(C)CCNC(=O)c1ccc(-c2cnc3ccc(NCc4ccc(Cl)c(Cl)c4)nn23)cc1`, with 910 nM.
On to `O=C1Nc2cccc3c2C1(CCCCN1CCC(c2c(-c4ccc(F)cc4)[nH]c4ccccc24)CC1)CCC3` (stereo not drawn), for which the IC50 was found to be 1190 nM.
The value for `CCN(CC)CCCN(CCCN(CC)CC)c1cc(C)nc(Nc2ccc(Cl)cc2)n1` was 210 nM; that for `CC1(C)N=C(N)N=C(N)N1c1ccc(Br)cc1` was 10 nM; that for `Cc1ccc(NC(=O)c2ccc3ncccc3c2)cc1OC1CCN(CCC(C)C)CC1` was 690 nM.
The value for `CN1CCN(CCCN(Cc2csc(-c3ccc(CNCc4ccccc4)cc3)n2)C(=O)Nc2ccc3ccccc3c2)CC1` was 1100 nM; that for `CN1CCC(NCc2ccc(-c3ccc(S(=O)(=O)NCc4ccccc4)cc3)cc2)CC1` was 830 nM; that for `OC(CNc1cccc(Cl)c1)Cn1c2ccc(Cl)cc2c2cc(Cl)ccc21` (stereo not drawn) was 960 nM.
Then `Cc1ccc(NC(=O)Nc2ccc(I)c(OCCN(C)C)c2)cc1Cl`, with 560 nM; and `CCCCCCNc1cc(C)nc2ccc(OC)cc12`, with 550 nM.
Consider `CS(=O)(=O)c1ccc(-c2cncc(Cl)n2)cc1`, for which the half-maximal inhibitory concentration (IC50) worked out at 770 nM.
Then `O=C(C=Cc1ccc(Cl)c(Cl)c1)NCCCCCN1CCC(CCNS(=O)(=O)c2ccc(F)cc2)CC1`, with 1090 nM; and `CCCC(=O)NC(c1ccc(C)cc1)c1ccc2cccnc2c1O` (stereo not drawn), with 960 nM.
The value for `COc1ccc(CN2CCC(CNCCc3ccccc3Cl)CC2)cc1` was 1110 nM.
The value for `COc1cccc(CNC(=O)c2cccc(-c3cccc(CN4CCC(N5CCCC5)CC4)c3)n2)c1` was 1030 nM; that for `CON=Cc1sc(CNCCCNc2cc(=O)c3ccccc3[nH]2)c(C)c1Br` was 960 nM; that for `CN1CCc2cc(CN3C[C@]4(C)C[C@H]3CC(C)(C)C4)c(O)cc2C(c2ccccc2)C1` (stereo partly drawn) was 720 nM.
Turning to `Cc1[nH]c(C)c(-c2ccc(Oc3cc(Cl)cc(Cl)c3)cc2)c(=O)c1Cl`, the IC50 came to 520 nM.
Then `CS(=O)(=O)Nc1ccc2[nH]cc(C3CCN(CC4CCC(NC(=O)/C=C/c5ccccc5Cl)CC4)CC3)c2c1` (stereo not drawn), with 790 nM.
The value for `COc1ccc(C=C2SC(=N)N(c3ccccc3OC)C2=O)cc1` was 300 nM.
In the case of `O=C(NC1CCC(CN2CCC(c3c[nH]c4ccccc34)CC2)CC1)c1cc(-c2ccc(F)cc2F)ccc1O` (stereo not drawn), the concentration for half-maximal inhibition (IC50) worked out at 360 nM.
Then `CC(=O)N(Cc1ccccc1-c1cccc(CNCCc2ccccc2)c1)C1CCN(Cc2ccccc2)CC1`, with 1100 nM.
The value for `O=C(Nc1ccc(Cn2nc(Cl)c(N3CCCNCC3)cc2=O)cc1)c1ccc(-c2ccccc2)cc1` was 710 nM; that for `Cc1cc(-c2ncc[nH]2)ccc1-c1ccc(C(=O)N2CCc3cc4c(cc32)C2(CCN(C)CC2)CO4)cc1` was 800 nM.
The value for `CCc1c(CCNCCCCCCNCCc2ccc(OC)c(OC)c2CC)ccc(OC)c1OC` was 730 nM; that for `Cn1cc(C2CCN(CCCCNC(=O)c3sc(-c4ccc(C(F)(F)F)cc4)nc3CO)CC2)c2ccccc21` was 1060 nM.
The molecule `O=C(CCCCCNC(=O)c1ccc(O)c(-c2ccc(Cl)c(Cl)c2)c1)NCc1cccc(C(F)(F)F)c1` showed an IC50 of 730 nM.
The value for `O=C(Nc1ccccc1Br)N[C@@H]1CCN(c2ccnc3ccccc23)C1` was 940 nM.
The value for `COc1cccc(NC(=O)c2cc(Br)cc(N3CCN(c4ccncc4)CC3)c2)c1` was 770 nM; that for `O=C(/C=C/c1ccc(Cl)c(Cl)c1)NCCCCCN1CCCC(C(=O)Nc2ccc(Cl)cc2)C1` (stereo not drawn) was 850 nM.
For the molecule `O=C1Nc2cccc3c2C1(CCCN1CCC(c2c[nH]c4cc(C(F)(F)F)ccc24)CC1)CCC3` (stereo not drawn), the IC50 was found to be 960 nM.
Then `Cc1ccc(OCC2CCN(c3ncc(C(=O)NCCCN4CCCC4=O)cc3Cl)CC2)cc1`, with 1260 nM.
In the case of `COc1cc2cc(C(=O)Nc3ccccc3)c(N)nc2cc1OC`, the concentration for half-maximal inhibition (IC50) is 1130 nM.
Then `COc1ccc(CNCCc2cccs2)cc1-c1ccc(S(=O)(=O)NCCN2CCCC2)cc1`, with 650 nM; and `Cc1cccc2[nH]c(-c3cccc(-c4cccc(NC(=O)CNc5ccc(C(N)=O)cc5)c4)c3)nc12`, with 280 nM; and `O=C1CN(C(=O)CCC2CCCC2)C(c2ccc(F)cc2)c2cc(F)ccc2N1` (stereo not drawn), with 170 nM.
The value for `O=C(Nc1ccc(OC(F)(F)F)cc1)Nc1ccc([N+](=O)[O-])cc1` was 880 nM; that for `COc1ccc2nccc([C@@H](O)CN3CCC(NCc4cc5ccccc5nn4)CC3)c2c1` was 1200 nM.
Then `CCNc1cc(C(=O)N[C@@H](Cc2ccccc2)[C@H](O)CN[C@H]2C[C@@H]3CC[C@H]2C3)cc(N2CCCCS2(=O)=O)c1`, with 240 nM; and `COc1ccc(CCNC(=O)c2cnc3c(c2)nc(-c2cnc(-c4ccccc4)[nH]2)n3CCc2cnc[nH]2)cc1`, with 970 nM; and `CC(C)(C)c1ccc(NC(=O)c2ccc(CN3CCCN(Cc4cccc(Cl)c4)CC3)cc2)cc1`, with 970 nM.
As for `COc1c(C(=O)NC2CCN(Cc3ccccc3)C2)cnc2ccccc12` (stereo not drawn), the IC50 came to 960 nM.
Then `CCCC1N=C(N)N=C(N)N1c1ccc(C)c(C)c1` (stereo not drawn), with 70 nM; and `Cc1cc(NCCCCCCCCNc2cc(C)nc3ccccc23)c2ccccc2n1`, with 990 nM; and `CC(O)C1CCCCN1C(=O)c1cccc(-c2ccc(-c3nc4ccc(F)cc4[nH]3)cc2)c1` (stereo not drawn), with 740 nM.
The molecule `CCOc1cccc(C(=O)Nc2nonc2-c2ccc(OC)c(OC)c2)c1` had an IC50 of 1020 nM.
`CCC[C@@H]([C@@H](CC1CCCCC1)C(=O)N[C@@H](CCOC(=O)NCC)C(=O)Nc1nccs1)N(O)C=O` yielded an IC50 of 80 nM.
Then `N#Cc1ccc(CN2CCC(Oc3ccc(NC(=O)c4ccsc4)cc3Cl)C2)cc1` (stereo not drawn), with 670 nM.
The value for `Clc1ccc(OCc2ccccc2)c(-c2nc(-c3nc4ccc(Cl)cc4[nH]3)cs2)c1` was 670 nM; that for `N#Cc1ccc(NC(=NCCc2c[nH]c3ccccc23)Nc2ccc(-c3ccccc3)cc2)c(O)c1` was 340 nM; that for `CCc1cc2c3c(N)nc(N)nc3ccc2n1CC` was 10 nM.
`Oc1c(CN2CCCC(C(F)(F)F)C2)cc(Cl)c2ccccc12` (stereo not drawn): the IC50 was found to be 1570 nM.
The value for `Cc1cc(C)c(NC(=O)NC2CCN(CCCCCNC(=O)/C=C/c3ccc(Cl)c(Cl)c3)C2)c(C)c1` (stereo not drawn) was 190 nM.
Then `COc1ccc(C2CC(=O)C3=C(C2)NC(C)=C(C(=O)OC2CCCC2)C3c2ccc(O)cc2)cc1OC` (stereo not drawn), with 570 nM.
